Tested on: liver P450
Experiment: inhibition of 2,4-diene alkylamide metabolism by co-incubation with a 2-ene alkylamide in human liver microsomes
Type: in vitro ADME
Settings: co-incubation of 3 with 6 at equimolar concentrations, 90 minutes
Method: Compound 3 was present at 20 μM in all experiments while 6 was present at (●) 0, (∘) 0.22, (▪) 2.2, ( ) 5.5, (▴) 9.0 and (Δ) 20 uM. Each point represents the mean for one microsomal preparation examined in duplicate. The deviation was less than 15 for each point.
Incubations (0.5 mL) with tissue fractions contained either the microsomal fraction at 0.1-0.2 mM P450 or the cytosolic fraction at 5 mg/mL protein in 100 mM potassium phosphate (pH 7.4) supplemented with is substrates (synthetic alkylamides 6, 11, 3 and 12 or the alkylamide fraction from the ethanolic liquid as required—see Figure legends for concentrations used) added from ethanolic stocks. Final ethanol concentrations were either 0.70% or 0.96% and were consistent in each assay. Reactions were initiated by the addition of an NADPH-generating system consisting of (final concentrations) 250 mM NADP+, 10 mM glucose-6-phosphate and 0.5 μ/mL glucose-6-phosphate dehydrogenase. Negative controls and cytosolic incubations lacked an NADPH-generating system. Reaction mixtures were incubated at 37° C. with gentle agitation for the duration of each experiment. Reactions were terminated by addition of an equal volume of 100% methanol to a sample aliquot. Diluted samples were then centrifuged at 16000×g for 2 minutes and supernatants stored at −20° C. until analysis by LCMS.

% of the original concentration of 3 detected: 83±4%
Compound: C/C=C\C=C/CC/C=C/C=C/C(=O)NCC(C)C [alkylamide 3, (2E,4E,8Z,10Z)—N-isobutyldodeca-2,4,8,10-tetraenamide]
